The structures appear in SMILES notation. Some results are limits rather than exact numbers.

This passage reports IC50, inhibition and CC50 results from US10626126B2, “Compounds” (Pulmocide Limited, priority 2016, dated 2020).

Holding throughout (type): cell-based
One series concerns RSV B Washington strain. In words: RSV B induced CPE in HEp2 cells. To be noted: human respiratory syncytial virus; for IC50: HEp-2, 144 h, 6 days; for inhibition at 0.1 µg/mL: HEp-2, at 0.1 μg/mL; for inhibition at 1 µg/mL: HEp-2, at 1 μg/mL. The procedure:
(§1) HEp2 cells were seeded (10^3/well/50 μL) in 384-well plates (Catalogue number 353962, BD Falcon, Oxford, UK) in 5% FBS-DMEM (containing 2 mM L-glutamine and 1 mM sodium pyruvate) one day before infection. […] Simultaneously, test compounds (0.5 μL DMSO solution) were added to 100 μL of HEp2 cell culture with virus solution to provide a final DMSO solution of 0.5%. […] Sigma-Aldrich, Dorset, UK) was added to each well and the plate incubated for a further 6 hr (37° C./5% CO2). The fluorescence of each well [545 nm (excitation)/590 nm (emission)] was determined using a multi-scanner (Clariostar: BMG, Buckinghamshire, UK). The percentage inhibition for each well was calculated and the IC50, IC75 and IC90 values were calculated from the concentration-response curve generated for each test compound.

Series [1] in a line: Cell viability: resazurin assay. To be noted: human, HEp2 cells. The method, then:
HEp2 cells were seeded in 384-well plates (10^3/well/50 μL; BD Falcon Ref 353962) in FBS DMEM (5%, containing 2 mM L-glutamine and 1 mM sodium pyruvate) one day before experimentation. Serum-free DMEM (50 μL) was added to test wells, while for control wells the media was removed and sterile water (100 μL) added. Test compounds (0.5 μL DMSO solution) were added to give a final DMSO concentration of 0.5%. HEp2 cells were incubated with each test compound for 5 days (37° C./5% CO2 in 2.5% FBS) and then resazurin stock solution (5 μL; 0.03%) was added to each well and the plate incubated for a further 6 hr (37° C./5% CO2). The fluorescence of each well at 545 nm (excitation) and 590 nm (emission) was determined using a multi-scanner (Clariostar: BMG Labtech). The percentage loss of cell viability was calculated for each well relative to vehicle (0.5% DMSO) treatment. Note that any apparent increase in cell viability associated with test compound treatment relative to vehicle is consequently tabulated as a negative percentage. Where appropriate, a CC50 value was calculated from the concentration-response curve generated from the concentration-response curve for each test compound.

In another series the test system is RSV A2 strain. The series is described as follows: RSV A2 induced CPE in HEp2 cells. The settings on record: human respiratory syncytial virus; for IC50: HEp-2, 120 h, 5 days; for inhibition at 0.01 µg/mL: HEp-2, at 0.01 μg/mL. The procedure:
as §1

In the series with RSV B Washington strain, `O=C(Nc1c(F)cccc1F)c1cc2c(s1)-c1sccc1N(C(=O)c1ccc(NC(=O)c3cc4c(nc3N3CC5(CCOCC5)C3)CCC4)cc1)CC2` [Example 2, 4-(4-(2-(7-Oxa-2-azaspiro[3.5]nonan-2-yl)-6,7-dihydro-5H-cyclopenta[b]pyridine-3-carboxamido)benzoyl)-N-(2,6-difluorophenyl)-5,6-dihydro-4H-dithieno[3,2-b: 2′,3′-d]azepine-8-carboxamide] displayed an IC50 of 0.0087 µM and an inhibition at 0.1 µg/mL of 86%. In series [1], this compound had a CC50 at 5 days above 13.3 µM. In the series on RSV A2 strain, this compound registered a half-maximal inhibitory concentration (IC50) of 0.00037 µM and an inhibition at 0.01 µg/mL of 97%.

In the series with RSV B Washington strain, `[2H]c1c([2H])c(C(=O)N2CCc3cc(C(=O)Nc4c(F)cccc4F)sc3-c3sccc32)c([2H])c([2H])c1NC(=O)c1cc(C)cnc1N1CC2(CCOCC2)C1` [Example 3, N-(2,6-difluorophenyl)-4-(4-(5-methyl-2-(7-oxa-2-azaspiro[3.5]nonan-2-yl)nicotinamido)benz-y-2,3,5,6-d4)-5,6-dihydro-4H-dithieno[3,2-b:2′,3′-d]azepine-8-carboxamide] had a concentration for half-maximal inhibition (IC50) of 0.014 µM and an inhibition at 0.1 µg/mL of 100%. Further, the 50% cytotoxic concentration (CC50) at 5 days in series [1] is above 13.7 µM. In the series with RSV A2 strain, this compound yielded an IC50 of 0.00015 µM and an inhibition at 0.01 µg/mL of 95%.

In the series with RSV B Washington strain, `Cc1cc(C(=O)Nc2ccc(C(=O)N3CCc4cc(C(=O)Nc5c(F)cccc5F)sc4-c4sccc43)cc2)c(N2CC3(CCOCC3)C2)nc1C` [Example 4, N-(2,6-Difluorophenyl)-4-(4-(5,6-dimethyl-2-(7-oxa-2-azaspiro[3.5]nonan-2-yl)nicotinamido)benzoyl)-5,6-dihydro-4H-dithieno[3,2-b:2′,3′-d]azepine-8-carboxamide] showed an IC50 of 0.018 µM and an inhibition at 0.1 µg/mL of 98%. This compound also yielded a CC50 at 5 days in series [1] above 13.5 µM. In the series on RSV A2 strain, this compound had an IC50 of 0.00028 µM and an inhibition at 0.01 µg/mL of 96%.

For `Cc1ccc(C(=O)Nc2ccc(C(=O)N3CCc4cc(C(=O)Nc5c(F)cccc5F)sc4-c4sccc43)c(F)c2)c(N2CC3(CCOCC3)C2)n1` [Example 5, N-(2,6-Difluorophenyl)-4-(2-fluoro-4-(6-methyl-2-(7-oxa-2-azaspiro[3.5]nonan-2-yl)nicotinamido)benzoyl)-5,6-dihydro-4H-dithieno[3,2-b:2′,3′-d]azepine-8-carboxamide], in the series with RSV B Washington strain, 0.019 µM corresponded to half-maximal inhibition (IC50) and the inhibition at 0.1 µg/mL was 97%. Further, the cytotoxic concentration (CC50) at 5 days in series [1] was above 13.4 µM. In the series with RSV A2 strain, this compound returned a half-inhibitory concentration (IC50) of 0.00055 µM and an inhibition at 0.01 µg/mL of 89%.

In the series with RSV B Washington strain, `O=C(Nc1c(F)cccc1F)c1cc2c(s1)-c1sccc1N(C(=O)c1ccc(NC(=O)c3cccnc3N3CC4(CCOCC4)C3)cc1)CC2` [Example 6, 4-(4-(2-(7-oxa-2-azaspiro[3.5]nonan-2-yl)nicotin-amido)benzoyl)-N-(2,6-difluorophenyl)-5,6-dihydro-4H-dithieno[3,2-b:2′,3′-d]azepine-8-carboxamide] yielded a half-maximal inhibitory concentration (IC50) of 0.063 µM and an inhibition at 1 µg/mL of 95%. The compound further registered a CC50 at 5 days in series [1] above 14 µM. In the series with RSV A2 strain, this compound returned an IC50 of 0.00044 µM and an inhibition at 0.01 µg/mL of 93%.

In the series with RSV B Washington strain, `O=C(Nc1c(F)cccc1F)c1cc2c(s1)-c1sccc1N(C(=O)c1ccc(NC(=O)c3cccnc3N3CC4(CCOCC4)C3)cc1F)CC2` [Example 7, 4-(4-(2-(7-oxa-2-azaspiro[3.5]nonan-2-yl)nicotinamido)-2-fluorobenzoyl)-N-(2,6-difluorophenyl)-5,6-dihydro-4H-dithieno[3,2-b:2′,3′-d]azepine-8-carboxamide] came in with a concentration for half-maximal inhibition (IC50) of 0.097 µM and an inhibition at 1 µg/mL of 82%. Moreover, the half-maximal cytotoxic concentration (CC50) at 5 days in series [1] is above 13.7 µM. For the same compound, in the series on RSV A2 strain, the half-inhibitory concentration (IC50) came out at 0.0026 µM and the inhibition at 0.01 µg/mL came to 87%.

In the series with RSV B Washington strain, `Cc1cnc(N2CC3(CCOCC3)C2)c(C(=O)Nc2ccc(C(=O)N3CCc4cc(C(=O)Nc5ccccc5)sc4-c4sccc43)cc2)c1` [Example 8, 4-(4-(5-methyl-2-(7-oxa-2-azaspiro[3.5]nonan-2-yl)nicotinamido)benzoyl)-N-phenyl-5,6-dihydro-4H-dithieno [3,2-b:2′,3′-d]azepine-8-carboxamide] displayed an IC50 of 0.137 µM and an inhibition at 1 µg/mL of 97%. In series [1], this compound registered a half-maximal cytotoxic concentration (CC50) at 5 days above 14.5 µM. In the series on RSV A2 strain, this compound returned a 50% inhibitory concentration (IC50) of 0.00068 µM and an inhibition at 0.01 µg/mL of 100%.

Turning to `Cc1cnc(N2CC3(CCOCC3)C2)c(C(=O)Nc2ccc(C(=O)N3CCc4cc(C(=O)Nc5ccccc5F)sc4-c4sccc43)cc2)c1` [Example 9, N-(2-fluorophenyl)-4-(4-(5-methyl-2-(7-oxa-2-azaspiro[3.5]nonan-2-yl)nicotinamido)benzoyl)-5,6-dihydro-4H-dithieno[3,2-b:2′,3′-d]azepine-8-carboxamide], in the series on RSV B Washington strain, the IC50 amounted to 0.054 µM and the inhibition at 0.1 µg/mL was determined as 100%. The same compound returned a half-maximal cytotoxic concentration (CC50) at 5 days in series [1] above 14.1 µM. For the same compound, in the series on RSV A2 strain, the IC50 came out at 0.00018 µM and the inhibition at 0.01 µg/mL worked out at 100%.

For the compound `Cc1cnc(N2CC3(CCOCC3)C2)c(C(=O)Nc2ccc(C(=O)N3CCc4cc(C(=O)Nc5ccc(F)cc5F)sc4-c4sccc43)cc2)c1` [Example 10, N-(2,4-difluorophenyl)-4-(4-(5-methyl-2-(7-oxa-2-azaspiro[3.5]nonan-2-yl)nicotinamido)benzoyl)-5,6-dihydro-4H-dithieno[3,2-b:2′,3′-d]azepine-8-carboxamide], in the series on RSV B Washington strain, the half-inhibitory concentration (IC50) is 0.123 µM and at 1 µg/mL the inhibition was 100%. Also, the CC50 at 5 days in series [1] is above 13.8 µM. In the series on RSV A2 strain, half-maximal inhibition (IC50) was put at 0.00075 µM and the inhibition at 0.01 µg/mL turned out to be 97%.

In the series with RSV B Washington strain, `Cc1cnc(N2CC3(CCOCC3)C2)c(C(=O)Nc2ccc(C(=O)N3CCc4cc(C(=O)Nc5c(C)cccc5F)sc4-c4sccc43)cc2)c1` [Example 11, N-(2-fluoro-6-methylphenyl)-4-(4-(5-methyl-2-(7-oxa-2-azaspiro[3.5]nonan-2-yl)nicotinamido)benzoyl)-5,6-dihydro-4H-dithieno[3,2-b:2′,3′-d]azepine-8-carboxamide] showed an IC50 of 0.0083 µM and an inhibition at 0.1 µg/mL of 100%. In series [1], this compound showed a cytotoxic concentration (CC50) at 5 days above 13.9 µM. In the series on RSV A2 strain, this compound displayed an IC50 of 0.00021 µM and an inhibition at 0.01 µg/mL of 100%.

With `Cc1cnc(N2CC3(CCOCC3)C2)c(C(=O)Nc2ccc(C(=O)N3CCc4cc(C(=O)Nc5c(Cl)cccc5Cl)sc4-c4sccc43)cc2)c1` [Example 13, N-(2,6-dichlorophenyl)-4-(4-(5-methyl-2-(7-oxa-2-azaspiro [3.5]nonan-2-yl)nicotinamido)benzoyl)-5,6-dihydro-4H-dithieno[3,2-b:2′,3′-d]azepine-8-carboxamide], in the series on RSV B Washington strain, the midpoint of inhibition, the IC50, lay at 0.0012 µM and the inhibition at 1 µg/mL is 80%. This compound yielded a cytotoxic concentration (CC50) at 5 days in series [1] above 13.2 µM. In the series with RSV A2 strain, half-maximal inhibition (IC50) required 0.00014 µM and the inhibition at 0.01 µg/mL was 77%.

In the series with RSV B Washington strain, `Cc1cnc(N2CC3(CCOCC3)C2)c(C(=O)Nc2ccc(C(=O)N3CCc4cc(C(=O)Nc5c(O)cccc5F)sc4-c4sccc43)cc2)c1` [Example 15, N-(2-fluoro-6-hydroxyphenyl)-4-(4-(5-methyl-2-(7-oxa-2-azaspiro[3.5]nonan-2-yl)nicotinamido)benzoyl)-5,6-dihydro-4H-dithieno[3,2-b:2′,3′-d]azepine-8-carboxamide] yielded an IC50 of 0.086 µM and an inhibition at 1 µg/mL of 90%. The half-maximal cytotoxic concentration (CC50) at 5 days in series [1] was above 13.8 µM. Also, in the series with RSV A2 strain, the 50% inhibitory concentration (IC50) was found to be 0.0003 µM and at 0.01 µg/mL the inhibition was 100%.

As to `COc1cccc(F)c1NC(=O)c1cc2c(s1)-c1sccc1N(C(=O)c1ccc(NC(=O)c3cc(C)cnc3N3CC4(CCOCC4)C3)cc1)CC2` [Example 16, N-(2-fluoro-6-methoxyphenyl)-4-(4-(5-methyl-2-(7-oxa-2-azaspiro[3.5]nonan-2-yl)nicotinamido)benzoyl)-5,6-dihydro-4H-dithieno[3,2-b:2′,3′-d]azepine-8-carboxamide], in the series with RSV B Washington strain, half-maximal inhibition (IC50) was put at 0.032 µM and testing at 0.1 µg/mL gave an inhibition of 100%. Besides, in series [1], the CC50 at 5 days was above 13.6 µM. In addition, in the series on RSV A2 strain, the 50% inhibitory concentration (IC50) turned out to be 0.00018 µM and the inhibition at 0.01 µg/mL came to 96%.

In the series with RSV B Washington strain, `Cc1cnc(N2CC3(CCOCC3)C2)c(C(=O)Nc2ccc(C(=O)N3CCc4cc(C(=O)Nc5c(F)cc(F)cc5F)sc4-c4sccc43)cc2)c1` [Example 17, 4-(4-(5-methyl-2-(7-oxa-2-azaspiro[3.5]nonan-2-yl)nicotinamido)benzoyl)-N-(2,4,6-trifluorophenyl)-5,6-dihydro-4H-dithieno[3,2-b:2′,3′-d]azepine-8-carboxamide] came in with a 50% inhibitory concentration (IC50) of 0.019 µM and an inhibition at 0.1 µg/mL of 100%. The same compound registered a 50% cytotoxic concentration (CC50) at 5 days in series [1] above 13.4 µM. In the series with RSV A2 strain, the IC50 amounted to 0.00017 µM and the inhibition at 0.01 µg/mL is 92%.
